Source: ChEMBL document CHEMBL1201862, “PubChem BioAssay data set” (2004)
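Where inhibition never reached the appropriate level, the endpoint shown equals the highest concentration tested. Otherwise, values were interpolated linearly from a five-concentration, 48-hour dose response in 96-well plates. GI50 marks 50% less growth.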 Activity calls are given as the source filed them. Rule as the data show it: active = GI50 up to about 1.1 µM and inactive = higher.

Assays:
Assay in all cases: DTP human tumour cell line panel, 48 h
SN12C = tested on: SN12C
786-0 = tested on: 786-0
HCT-15 = tested on: HCT-15
HOP-92 = tested on: HOP-92
A549 = tested on: A549
SR = tested on: SR
SK-MEL-5 = tested on: SK-MEL-5
SNB-75 = tested on: SNB-75
CAKI-1 = tested on: CAKI-1
OVCAR-4 = tested on: OVCAR-4
RXF 393 = tested on: RXF 393
MDA-N = tested on: MDA-N
HT-29 = tested on: HT-29
K562 = tested on: K562
TK-10 = tested on: TK-10
SK-MEL-28 = tested on: SK-MEL-28
MOLT-4 = tested on: MOLT-4
UO-31 = tested on: UO-31
NCI-H522 = tested on: NCI-H522
NCI/ADR-RES = tested on: NCI/ADR-RES

SMILES	GI50 (SN12C)	GI50 (786-0)	GI50 (HCT-15) [µM]	GI50 (HOP-92)	GI50 (A549)	GI50 (SR)	GI50 (SK-MEL-5)	GI50 (SNB-75)	GI50 (CAKI-1)	GI50 (OVCAR-4)	GI50 (RXF 393)	GI50 (MDA-N)	GI50 (HT-29)	GI50 (K562)	GI50 (TK-10)	GI50 (SK-MEL-28)	GI50 (MOLT-4)	GI50 (UO-31)	GI50 (NCI-H522)	GI50 (NCI/ADR-RES)
CCOC(=O)CSc1[nH]c(NC(=S)Nc2ccccc2)c(C(N)=O)c1C(N)=O	> 10 µM (inactive)	> 10 µM (inactive)	> 10	> 10 µM (inactive)	> 10 µM (inactive)	3.67 µM (inactive)	> 10 µM (inactive)	> 10 µM (inactive)	> 10 µM (inactive)	> 10 µM (inactive)	> 10 µM (inactive)	> 10 µM (inactive)	> 10 µM (inactive)	> 10 µM (inactive)	> 10 µM (inactive)	> 10 µM (inactive)	6.21 µM (inactive)			
O=C(O/N=C1/CCC/C1=C\c1ccccc1)c1ccc(Cl)c(Cl)c1	> 100 µM (inactive)	> 100 µM (inactive)	> 100	> 100 µM (inactive)	> 100 µM (inactive)	> 100 µM (inactive)	> 100 µM (inactive)	> 100 µM (inactive)	> 100 µM (inactive)	35 µM (inactive)	> 100 µM (inactive)		> 100 µM (inactive)	> 100 µM (inactive)	> 100 µM (inactive)	> 100 µM (inactive)	> 100 µM (inactive)	> 100 µM (inactive)	> 100 µM (inactive)	
CC#CS(=O)(=O)c1ccccc1	6.32 µM (inactive)	3.43 µM (inactive)	2.88	2.51 µM (inactive)	16.1 µM (inactive)		2.81 µM (inactive)	3.01 µM (inactive)	1.04 µM (active)	3.19 µM (inactive)	14.2 µM (inactive)		3.67 µM (inactive)		4.92 µM (inactive)	3.13 µM (inactive)	0.253 µM (active)	1.86 µM (inactive)	1.62 µM (inactive)	10.4 µM (inactive)
O=C(NCc1cccnc1)C1COc2cc(-c3cc(=O)c4ccccc4o3)ccc2O1 (stereo not drawn)	4.34 µM (inactive)	7.19 µM (inactive)	77.3	> 75.3 µM (inactive)	5.79 µM (inactive)	5.46 µM (inactive)	26.1 µM (inactive)	3.49 µM (inactive)	> 63.7 µM (inactive)	55.3 µM (inactive)	28.7 µM (inactive)		> 87.3 µM (inactive)	> 80.2 µM (inactive)	> 57.9 µM (inactive)	3.49 µM (inactive)	5.14 µM (inactive)	> 43.9 µM (inactive)	10.7 µM (inactive)	
OCC(O)CNc1ccnc2cc(Cl)ccc12 (stereo not drawn)	> 100 µM (inactive)	> 100 µM (inactive)	> 100	> 100 µM (inactive)	> 100 µM (inactive)	> 100 µM (inactive)	> 100 µM (inactive)	> 100 µM (inactive)	> 100 µM (inactive)	> 100 µM (inactive)	> 100 µM (inactive)		> 100 µM (inactive)	> 100 µM (inactive)	> 100 µM (inactive)	> 100 µM (inactive)	> 100 µM (inactive)	> 100 µM (inactive)	> 100 µM (inactive)	
O=C(O/N=C1/CCCC/C1=C\c1ccccc1)c1ccc(Cl)c(Cl)c1	49.8 µM (inactive)	30.2 µM (inactive)	33.3	26.8 µM (inactive)	17.5 µM (inactive)	8.2 µM (inactive)	38.5 µM (inactive)	27.5 µM (inactive)	27.3 µM (inactive)	20.7 µM (inactive)	27.7 µM (inactive)		22.4 µM (inactive)	15.8 µM (inactive)	23.2 µM (inactive)	18.3 µM (inactive)	13.3 µM (inactive)	17.9 µM (inactive)	18.4 µM (inactive)	
COc1cccc(/C=C2\N=C(Cl)OC2=O)c1O	> 100 µM (inactive)	> 94.6 µM (inactive)	> 100	> 100 µM (inactive)	> 100 µM (inactive)	> 88.9 µM (inactive)	> 100 µM (inactive)	30.5 µM (inactive)	> 100 µM (inactive)	> 100 µM (inactive)	> 100 µM (inactive)		> 100 µM (inactive)	> 100 µM (inactive)	> 100 µM (inactive)	> 100 µM (inactive)	> 100 µM (inactive)	> 100 µM (inactive)	> 100 µM (inactive)	
COC1OC(C)/C(=N/O)C2OC(C)(C)OC12 (stereo not drawn)	> 100 µM (inactive)	> 100 µM (inactive)	> 100	> 100 µM (inactive)	> 100 µM (inactive)	> 100 µM (inactive)	> 100 µM (inactive)		> 100 µM (inactive)	> 100 µM (inactive)	> 100 µM (inactive)		> 100 µM (inactive)	> 100 µM (inactive)	> 100 µM (inactive)	> 100 µM (inactive)	> 100 µM (inactive)	> 100 µM (inactive)	> 100 µM (inactive)	> 100 µM (inactive)
CCc1n[nH]c(=O)n1/N=C/c1ccc(/C=N/n2c(CC)n[nH]c2=O)cc1	> 100 µM (inactive)	> 100 µM (inactive)	> 100		> 100 µM (inactive)		> 100 µM (inactive)		> 100 µM (inactive)	> 100 µM (inactive)	> 100 µM (inactive)	> 100 µM (inactive)	> 100 µM (inactive)	> 100 µM (inactive)	> 100 µM (inactive)	> 100 µM (inactive)	> 100 µM (inactive)	> 100 µM (inactive)	> 100 µM (inactive)	> 100 µM (inactive)
O=C(Nc1ccccn1)/C(=C\C(=O)c1ccc(Cl)cc1)Nc1ccccc1	> 10 µM (inactive)	7.16 µM (inactive)	> 10	> 10 µM (inactive)	> 10 µM (inactive)	> 10 µM (inactive)	> 10 µM (inactive)	5.68 µM (inactive)	> 10 µM (inactive)	> 10 µM (inactive)	> 10 µM (inactive)	> 10 µM (inactive)	> 10 µM (inactive)	> 10 µM (inactive)	> 10 µM (inactive)	> 10 µM (inactive)	> 10 µM (inactive)			
Cn1c(NC(=O)NC23CC4CC(CC(C4)C2)C3)nc2ccccc21	68.5 µM (inactive)	17.1 µM (inactive)	> 100	25.5 µM (inactive)	> 100 µM (inactive)	> 100 µM (inactive)	91 µM (inactive)	3.94 µM (inactive)	48.6 µM (inactive)	4.22 µM (inactive)	15.7 µM (inactive)		> 100 µM (inactive)	> 100 µM (inactive)	39.5 µM (inactive)	96.4 µM (inactive)	> 100 µM (inactive)	> 100 µM (inactive)	78.7 µM (inactive)	
CC1CC/C(=C\c2ccc(Cl)cc2)C2OC(N)=C(C#N)C(c3ccc(Cl)cc3)=C12 (stereo not drawn)	13.7 µM (inactive)	13.6 µM (inactive)	11.1				15.4 µM (inactive)		15.1 µM (inactive)		14.6 µM (inactive)	14.7 µM (inactive)	6.92 µM (inactive)	9.66 µM (inactive)	25.7 µM (inactive)	16.1 µM (inactive)	4.37 µM (inactive)	9.31 µM (inactive)		11.6 µM (inactive)
COc1ccc(-c2c(C(C)=O)c(-c3ccccc3)n(C3OC(CO)C(O)C(O)C3O)c(=S)c2C#N)cc1 (stereo not drawn)	> 100 µM (inactive)	> 100 µM (inactive)	> 100		> 100 µM (inactive)		> 100 µM (inactive)		> 100 µM (inactive)	> 100 µM (inactive)	> 100 µM (inactive)	> 100 µM (inactive)	> 100 µM (inactive)	> 100 µM (inactive)	> 100 µM (inactive)	> 100 µM (inactive)	> 100 µM (inactive)	4 µM (inactive)	> 100 µM (inactive)	> 100 µM (inactive)
NC1=C(C(=O)O)C(=O)C(Nc2c(O)cccc2C(=O)O)=CC1=O	> 100 µM (inactive)	> 100 µM (inactive)	> 100	> 100 µM (inactive)	> 100 µM (inactive)	> 100 µM (inactive)	76 µM (inactive)	> 100 µM (inactive)	> 100 µM (inactive)	> 100 µM (inactive)	31.6 µM (inactive)		> 100 µM (inactive)	> 100 µM (inactive)	> 100 µM (inactive)	0.942 µM (active)	> 100 µM (inactive)	> 100 µM (inactive)	> 100 µM (inactive)	
CC(C)CCCC(C)C1CCC2C3CC([N+](=O)[O-])=C4CC(O)CCC4(C)C3CCC12C (stereo not drawn)	18.2 µM (inactive)	16.9 µM (inactive)	17.3	23.3 µM (inactive)	23.2 µM (inactive)	15 µM (inactive)	> 10 µM (inactive)	17.1 µM (inactive)	24.1 µM (inactive)	21.4 µM (inactive)	23.6 µM (inactive)		17.9 µM (inactive)	9.62 µM (inactive)	21 µM (inactive)	13.7 µM (inactive)	24.2 µM (inactive)		17.5 µM (inactive)	
CCOC(=O)C(/N=N\c1ccc(S(N)(=O)=O)cc1)C(C)=O (stereo not drawn)	> 100 µM (inactive)	> 100 µM (inactive)	> 100	> 100 µM (inactive)	> 100 µM (inactive)	> 100 µM (inactive)	> 100 µM (inactive)	> 100 µM (inactive)	> 100 µM (inactive)	> 100 µM (inactive)	> 100 µM (inactive)		> 100 µM (inactive)	> 100 µM (inactive)	> 100 µM (inactive)	> 100 µM (inactive)	> 100 µM (inactive)	> 100 µM (inactive)	> 100 µM (inactive)	
